We go through 2 molecules from patent publication EP0392976A1, “Monoclonal antibodies to tetracyclic compounds, processes for their production, and applications” (CIBA-GEIGY AG, priority 1989, dated 1990).

Bounds are passed on as bounds.

Common to all, as to experiment: inhibition enzyme immunoassay: inhibition of MAb binding to surface bound R-(-)-oxaprotiline-mucin conjugate
Holding throughout (design): species or system mouse

One assay concerns MAb 1219S59.11. The conditions noted are these: for IC50: MAb 1219S59.11, read-out: IC₅₀. The protocol:
(§1) The affinities of the monoclonal antibodies of the invention to R-(-)-oxaprotiline can for example be determined in an inhibition enzyme immunoassay according to Friguet et al. (J. Immunol. Methods 77, 305, 1985) wherein the monoclonal antibody to be tested is preincubated with R-(-)-oxaprotiline and, in a second step, exposed to a solid phase coated with an adsorbable conjugate of R-(-)-oxaprotiline, e.g. a protein conjugate. The fraction of the monoclonal antibody not engaged in immunocomplexes binds to the solid phase and is quantified by a secondary antibody-enzyme conjugate directed against the monoclonal antibody. The affinities are expressed as IC₅₀ (inhibition concentration) values, i.e. the concentration of free antigen causing a 50 % inhibition of antibody binding to the solid phase antigen.
(§2) This can be done, for example, in an inhibition enzyme immunoassay wherein the monoclonal antibodies of the invention are preincubated with any of the soluble compounds listed above and the incubation mixture is then tested in the enzyme immunoassay described above.
(§3) The conjugate solution (0.66 mg/ml) is diluted 1000-fold in coating buffer pH 9.8 (477 mg sodium carbonate, 897 mg sodium hydrogen carbonate, 60 mg sodium azide, 300 ml distilled water) and incubated in the wells of a microtitre plate for 2 days at 4°C. The wells are washed three times with PBS containing Tween 20 (Sigma, 0.1 %). Residual adsorption sites on the plate are saturated by incubation with 100 µl of PBS/Tween 20 for 1 h. 100 µl of a solution to be tested for the presence of antibodies to R-(-)-oxaprotiline are incubated in the wells for 1 h at room temperature. After washing three times with PBS/Tween 20, an alkaline phosphatase conjugated anti-mouse IgG antiserum (Sigma) is added in a 1000-fold dilution for 1 h at 37°C. The microtitre plate is washed five times with PBS/Tween 20, and the enzyme-conjugated bound antiserum developed with an alkaline phosphatase substrate consisting of disodium p-nitrophenylphosphate (1 mg/ml; Sigma) in diethanolamine buffer pH 9.8. The substrate gives a yellow coloration which is measured with a colorimeter (Titertek Multiskan) at a wave length of 405 nm after 60 min.
(§4) The assay is carried out as described in the following.
(§5) The capacity of free R-(-)-oxaprotiline and of a number of compounds which are structurally analogous to R-(-)-oxaprotiline to inhibit the binding of the monoclonal antibodies of the invention to the antigen is determined in an inhibition enzyme immunoassay essentially as described in example 3.2. The MAbs are preincubated with free R-(-)-oxaprotiline and with various structural analogues, respectively, instead of with the test compounds of example 3.2.

In the next assay the test system is MAb 1219S78.6. The conditions noted are these: for IC50: MAb 1219S78.6, read-out: IC₅₀. The protocol: as §1, §2, §3, §4, §5
For a further assay, the system named is MAb 1225S93.2. The conditions noted are these: for IC50: MAb 1225S93.2, read-out: IC₅₀. The method, then: as §1, §2, §3, §4, §5
In the next assay the test system is MAb 1228P63.1. The conditions noted are these: for IC50: MAb 1228P63.1, read-out: IC₅₀. The method, then:
as §1, §2, §3, §4, §5

The next assay deals with MAb 1226S31.3. The conditions noted are these: for IC50: MAb 1226S31.3, read-out: IC₅₀. The protocol:
as §1, §2, §3
The capacity of a number of therapeutic drugs some of which are used in combination with antidepressants and of biogenic amines to inhibit the binding of the monoclonal antibodies of the invention to the antigen is determined in a two-step inhibition enzyme immunoassay to establish the selectivity of the monoclonal antibodies to the tested compounds.
as §4, §5

Consider `CNCC(O)CC12CCC(c3ccccc31)c1ccc(C(F)(F)F)cc12` (centres unmarked) [compound 16], for which the rel. affinity in the assay with MAb 1219S59.11 is on record as above 3448; with MAb 1225S93.2, 251.4; in the assay with MAb 1228P63.1 it was above 1667; with MAb 1226S31.3, above 149. Moreover, the IC50 on MAb 1219S59.11 is above 1 µM; on MAb 1219S78.6 it was above 1 µM; on MAb 1225S93.2, 0.093 µM; at MAb 1228P63.1 it was above 1.25 µM; on MAb 1226S31.3, above 1 µM. In addition, the “IC50 relative to reference compound (fold)” value with MAb 1219S78.6 is given as above 3279.
As for `CN(C)CC(O)CC12CCC(c3ccccc31)c1ccc(C(F)(F)F)cc12` (centres unmarked) [compound 17], the rel. affinity with MAb 1219S59.11 is on record as above 3448; in the assay with MAb 1225S93.2, 628.4; with MAb 1228P63.1, above 1667; with MAb 1226S31.3, above 149. The IC50 is above 1 µM at MAb 1219S59.11; above 1 µM at MAb 1219S78.6; 0.233 µM on MAb 1225S93.2; above 1.25 µM on MAb 1228P63.1; above 1 µM on MAb 1226S31.3. The “IC50 relative to reference compound (fold)” value in the assay with MAb 1219S78.6 was above 3279.
